Legend:
[1] = target: T1, ubiquitin-activating enzyme E1 (UBA1) (Homo sapiens, UniProt P22314); test: E1-ubiquitin thioester gel assay with fluorescein-ubiquitin; assay type: biochemical
T1 construct: recombinant human UBA1, GST tag removed by thrombin
T1 sequence (P22314 2-1058): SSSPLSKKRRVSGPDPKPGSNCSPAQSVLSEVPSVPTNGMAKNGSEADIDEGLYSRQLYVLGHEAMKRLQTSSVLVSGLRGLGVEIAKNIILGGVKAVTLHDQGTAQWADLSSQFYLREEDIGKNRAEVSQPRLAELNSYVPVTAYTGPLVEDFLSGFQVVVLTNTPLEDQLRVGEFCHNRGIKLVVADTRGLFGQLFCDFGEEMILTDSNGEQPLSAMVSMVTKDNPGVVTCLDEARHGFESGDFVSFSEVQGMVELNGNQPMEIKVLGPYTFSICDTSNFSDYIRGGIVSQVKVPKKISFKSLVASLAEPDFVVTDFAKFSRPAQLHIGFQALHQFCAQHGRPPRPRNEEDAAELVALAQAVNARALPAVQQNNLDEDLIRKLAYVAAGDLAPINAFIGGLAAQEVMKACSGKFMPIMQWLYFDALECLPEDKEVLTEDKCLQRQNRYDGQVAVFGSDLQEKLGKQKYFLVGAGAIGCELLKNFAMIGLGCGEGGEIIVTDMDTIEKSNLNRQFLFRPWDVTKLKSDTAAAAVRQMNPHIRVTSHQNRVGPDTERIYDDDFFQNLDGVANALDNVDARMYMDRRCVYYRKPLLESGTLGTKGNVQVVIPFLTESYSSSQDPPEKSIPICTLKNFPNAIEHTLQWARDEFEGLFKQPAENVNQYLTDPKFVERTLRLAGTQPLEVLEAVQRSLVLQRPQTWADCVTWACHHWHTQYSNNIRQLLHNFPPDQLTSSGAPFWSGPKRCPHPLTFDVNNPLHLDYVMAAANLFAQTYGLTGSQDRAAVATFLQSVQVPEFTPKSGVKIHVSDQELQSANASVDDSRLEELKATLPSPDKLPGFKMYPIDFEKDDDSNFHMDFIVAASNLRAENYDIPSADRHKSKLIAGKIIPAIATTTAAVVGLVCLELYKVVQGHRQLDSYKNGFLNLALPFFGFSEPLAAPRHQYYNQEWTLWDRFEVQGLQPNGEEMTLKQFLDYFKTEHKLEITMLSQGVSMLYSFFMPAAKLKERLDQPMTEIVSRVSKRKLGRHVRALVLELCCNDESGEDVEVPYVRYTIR

[2] = target: T1, ubiquitin-activating enzyme E1 (UBA1); test: thioester gel assay; PPi:ATP and AMP:ATP exchange assays; assay type: biochemical

Structure (SMILES) | IC50 [1] [µM] | IC50 [2] [µM]
CCCCCCCC(=O)OCC/C=C/[C@@H]1CC(=O)NCc2nc(cs2)C2=N[C@@](C)(CS2)C(=O)N[C@@H](C(C)C)C(=O)O1 [E, Largazole ester] | ~25 | 
CCCCCCCC(=O)CCC/C=C/[C@@H]1CC(=O)NCc2nc(cs2)C2=N[C@@](C)(CS2)C(=O)N[C@@H](C(C)C)C(=O)O1 [K, Largazole ketone] |  | ~30
CCCCCCCC(=O)SCC/C=C/[C@@H]1CC(=O)NCc2nc(cs2)C2=N[C@@](C)(CS2)C(=O)N[C@@H](C(C)C)C(=O)O1 [L, Largazole] | ~29 | 

From publication PMC3261141, “Largazole and Its Derivatives Selectively Inhibit Ubiquitin Activating Enzyme (E1)” (PLoS ONE, 2012)
